Reference: the supplement of paper PMC11451515

Tests used:
Details in all cases: 48 h
NOMO1 [1] = experiment: cell viability relative to DMSO control; higher = less cytotoxic
Method in brief: (§1)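 Leukemia cells (NOMO1 or SEM, 500 cells/well; P12-Ichikawa, 1000 cells/well) were seeded in 5 μl in 1536-well plates after at least four passages of adaptation to each medium. They received library compounds in DMSO by pin dosing, 11 threefold points from 47 μM to 0.79 nM. Luminescence with CellTiter-Glo One was read after 48 h at 37°C. Viability is stated per plate relative to DMSO wells, with cell-free wells as background.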

P12-Ichikawa [2] = experiment: as above
Method in brief: as §1

SEM cells [3] = experiment: as above
Method in brief: as §1

NOMO1 [4] = experiment: AUC of viability dose-response curve (% viability x log10 dose units); higher = less sensitive
Method in brief: (§2)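 Library compounds in DMSO were applied for 48 h at 37°C at 11 threefold doses (47 μM to 0.79 nM) to medium-adapted leukemia cells in 1536-well plates holding 500 or 1000 cells/well. Luminescence from CellTiter-Glo One was normalised plate by plate against DMSO and cell-free wells. Area under the curve came from trapezoidal integration of a log-logistic fit, after scaling curves that rose above full viability and discarding those that failed quality control. The fit had four parameters and used log10 doses.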

P12-Ichikawa [5] = experiment: as above
Method in brief: as §2

SEM cells [6] = experiment: as above
Method in brief: as §2

CO[C@H]1/C=C/O[C@@]2(C)Oc3c(C)c(O)c4c(O)c(c(/C=N\N5CCN(C6CCCC6)CC5)c(O)c4c3C2=O)NC(=O)/C(C)=C\C=C\[C@H](C)[C@H](O)[C@@H](C)[C@@H](O)[C@@H](C)[C@H](OC(C)=O)[C@@H]1C
cell viability [%]
Details	NOMO1 [1]	P12-Ichikawa [2]	SEM cells [3]
HPLM + 10% dialyzed FBS, 0.000781 µM	119	112	78.4
HPLM + 10% dialyzed FBS, 0.00234 µM	123	122	70.3
HPLM + 10% dialyzed FBS, 0.00702 µM	104	117	63.7
HPLM + 10% dialyzed FBS, 0.0211 µM	116	109	62.1
HPLM + 10% dialyzed FBS, 0.0632 µM	90.5	104	45.6
HPLM + 10% dialyzed FBS, 0.19 µM	93.4	98.2	15
HPLM + 10% dialyzed FBS, 0.569 µM	79.3	98.2	6.95
HPLM + 10% dialyzed FBS, 1.71 µM	52.3	71.5	3.02
HPLM + 10% dialyzed FBS, 5.12 µM	28.9	19.8	1.55
HPLM + 10% dialyzed FBS, 15.4 µM	6.78	1.51	1.63
HPLM + 10% dialyzed FBS, 46.1 µM	0.815	-0.607	1.24
RPMI 5 mM glucose + 10% FBS, 0.000781 µM	123	–	39.3
RPMI 5 mM glucose + 10% FBS, 0.00234 µM	110	87.9	42.6
RPMI 5 mM glucose + 10% FBS, 0.00702 µM	111	93.7	34.7
RPMI 5 mM glucose + 10% FBS, 0.0211 µM	107	78.7	33.5
RPMI 5 mM glucose + 10% FBS, 0.0632 µM	109	70.7	29.1
RPMI 5 mM glucose + 10% FBS, 0.19 µM	76.5	70.7	9.34
RPMI 5 mM glucose + 10% FBS, 0.569 µM	75.1	68	4.87
RPMI 5 mM glucose + 10% FBS, 1.71 µM	51.8	51.8	2.56
RPMI 5 mM glucose + 10% FBS, 5.12 µM	17.9	5.83	1.35
RPMI 5 mM glucose + 10% FBS, 15.4 µM	3.98	0.395	1.05
RPMI 5 mM glucose + 10% FBS, 46.1 µM	0.906	-0.516	0.91
RPMI 5 mM glucose + 10% dialyzed FBS, 0.000781 µM	100	101	58
RPMI 5 mM glucose + 10% dialyzed FBS, 0.00234 µM	98.4	111	63.5
RPMI 5 mM glucose + 10% dialyzed FBS, 0.00702 µM	95.2	–	60.5
RPMI 5 mM glucose + 10% dialyzed FBS, 0.0211 µM	80.2	87.7	47.5
RPMI 5 mM glucose + 10% dialyzed FBS, 0.0632 µM	83.4	84.1	50.4
RPMI 5 mM glucose + 10% dialyzed FBS, 0.19 µM	79.3	74.6	19.8
RPMI 5 mM glucose + 10% dialyzed FBS, 0.569 µM	64.7	85.2	8.21
RPMI 5 mM glucose + 10% dialyzed FBS, 1.71 µM	52.9	61.8	2.82
RPMI 5 mM glucose + 10% dialyzed FBS, 5.12 µM	24.1	13.6	1.68
RPMI 5 mM glucose + 10% dialyzed FBS, 15.4 µM	3.08	5.16	1.26
RPMI 5 mM glucose + 10% dialyzed FBS, 46.1 µM	0.433	0.889	1.06

NOMO1 [4]
Details	AUC of viability dose-response curve
HPLM + 10% dialyzed FBS	308
RPMI 5 mM glucose + 10% FBS	300
RPMI 5 mM glucose + 10% dialyzed FBS	304

O=C1c2c(O)cc(O)cc2O[C@H](c2cc(O)c(O)c(O)c2)[C@H]1O
AUC of viability dose-response curve
Details	NOMO1 [4]	P12-Ichikawa [5]	SEM cells [6]
HPLM + 10% dialyzed FBS	430	456	426
RPMI 5 mM glucose + 10% FBS	461	452	410
RPMI 5 mM glucose + 10% dialyzed FBS	453	455	420

OCCn1cc(-c2ccc3c(c2)CC/C3=N\O)c(-c2ccncc2)n1
AUC of viability dose-response curve
Details	NOMO1 [4]	P12-Ichikawa [5]	SEM cells [6]
HPLM + 10% dialyzed FBS	464	444	462
RPMI 5 mM glucose + 10% FBS	468	450	465
RPMI 5 mM glucose + 10% dialyzed FBS	472	440	472

CC[C@@H](C(N)=O)N1CCCC1=O
AUC of viability dose-response curve
Details	NOMO1 [4]	P12-Ichikawa [5]	SEM cells [6]
HPLM + 10% dialyzed FBS	442	458	450
RPMI 5 mM glucose + 10% FBS	466	460	420
RPMI 5 mM glucose + 10% dialyzed FBS	456	467	443

CC(=O)C1=C(O)C2(C)C(=CC1=O)Oc1c(C(C)=O)c(O)c(C)c(O)c12 (stereo unspecified)
cell viability [%], SEM cells [3]
Details	HPLM + 10% dialyzed FBS	RPMI 5 mM glucose + 10% FBS
0.000781 µM	83.1	99.1
0.00234 µM	120	145
0.00702 µM	123	123
0.0211 µM	123	129
0.0632 µM	124	128
0.19 µM	133	152
0.569 µM	118	153
1.71 µM	149	124
5.12 µM	133	136
15.4 µM	149	133
46.1 µM	124	130

AUC of viability dose-response curve
Details	NOMO1 [4]	P12-Ichikawa [5]	SEM cells [6]
HPLM + 10% dialyzed FBS	328	347	459
RPMI 5 mM glucose + 10% FBS	305	342	452
RPMI 5 mM glucose + 10% dialyzed FBS	321	375	448

CCN1\C=C(C(O)=O)/C(=O)C2=C1C=C(N3CCN(C)CC3)C(=C2)F
cell viability [%]
Details	NOMO1 [1]	P12-Ichikawa [2]	SEM cells [3]
HPLM + 10% dialyzed FBS, 0.000781 µM	–	117	107
HPLM + 10% dialyzed FBS, 0.00234 µM	–	118	112
HPLM + 10% dialyzed FBS, 0.00702 µM	–	114	98.6
HPLM + 10% dialyzed FBS, 0.0211 µM	–	107	117
HPLM + 10% dialyzed FBS, 0.0632 µM	–	116	104
HPLM + 10% dialyzed FBS, 0.19 µM	–	113	115
HPLM + 10% dialyzed FBS, 0.569 µM	–	108	129
HPLM + 10% dialyzed FBS, 1.71 µM	–	105	105
HPLM + 10% dialyzed FBS, 5.12 µM	–	90.7	109
HPLM + 10% dialyzed FBS, 15.4 µM	–	77.5	110
HPLM + 10% dialyzed FBS, 46.1 µM	–	71.5	96.7
RPMI 5 mM glucose + 10% FBS, 0.000781 µM	97.7	110	108
RPMI 5 mM glucose + 10% FBS, 0.00234 µM	104	116	112
RPMI 5 mM glucose + 10% FBS, 0.00702 µM	106	117	128
RPMI 5 mM glucose + 10% FBS, 0.0211 µM	108	108	116
RPMI 5 mM glucose + 10% FBS, 0.0632 µM	106	117	107
RPMI 5 mM glucose + 10% FBS, 0.19 µM	113	120	120
RPMI 5 mM glucose + 10% FBS, 0.569 µM	107	108	105
RPMI 5 mM glucose + 10% FBS, 1.71 µM	104	112	117
RPMI 5 mM glucose + 10% FBS, 5.12 µM	82	84	108
RPMI 5 mM glucose + 10% FBS, 15.4 µM	71	73.9	107
RPMI 5 mM glucose + 10% FBS, 46.1 µM	51.9	69.1	103
RPMI 5 mM glucose + 10% dialyzed FBS, 0.000781 µM	123	110	107
RPMI 5 mM glucose + 10% dialyzed FBS, 0.00234 µM	112	121	114
RPMI 5 mM glucose + 10% dialyzed FBS, 0.00702 µM	112	112	108
RPMI 5 mM glucose + 10% dialyzed FBS, 0.0211 µM	154	121	107
RPMI 5 mM glucose + 10% dialyzed FBS, 0.0632 µM	157	109	95.6
RPMI 5 mM glucose + 10% dialyzed FBS, 0.19 µM	77	123	108
RPMI 5 mM glucose + 10% dialyzed FBS, 0.569 µM	71.9	108	106
RPMI 5 mM glucose + 10% dialyzed FBS, 1.71 µM	47.7	104	83.6
RPMI 5 mM glucose + 10% dialyzed FBS, 5.12 µM	57.6	83.1	106
RPMI 5 mM glucose + 10% dialyzed FBS, 15.4 µM	58.5	69.1	109
RPMI 5 mM glucose + 10% dialyzed FBS, 46.1 µM	32.6	61.9	91.8

AUC of viability dose-response curve
Details	HPLM + 10% dialyzed FBS	RPMI 5 mM glucose + 10% FBS	RPMI 5 mM glucose + 10% dialyzed FBS
P12-Ichikawa [5]	437	437	426
SEM cells [6]	472	458	450

Nc1nc(N)nc(-c2cc(Cl)ccc2Cl)n1.O=C(O)/C=C\C(=O)O
AUC of viability dose-response curve
Details	NOMO1 [4]	P12-Ichikawa [5]	SEM cells [6]
HPLM + 10% dialyzed FBS	472	447	447
RPMI 5 mM glucose + 10% FBS	453	460	432
RPMI 5 mM glucose + 10% dialyzed FBS	461	457	459
